From patent US11572590B2, “Methods for evaluating tumor cell spheroids using 3D microfluidic cell culture device” (Dana-Farber Cancer Institute, Inc., priority 2017, dated 2023)
Where two headings read alike, the source gives them in different places.

Legend:
TBK1 = target: T1, TBK1 (Homo sapiens, UniProt Q9UHD2); experiment: SelectScreen Kinase Profiling, IC50 for TBK1; assay type: biochemical; conditions: ATP Km app, ZLYTE; for inhibition: TBK1
T1 sequence (Q9UHD2 1-729): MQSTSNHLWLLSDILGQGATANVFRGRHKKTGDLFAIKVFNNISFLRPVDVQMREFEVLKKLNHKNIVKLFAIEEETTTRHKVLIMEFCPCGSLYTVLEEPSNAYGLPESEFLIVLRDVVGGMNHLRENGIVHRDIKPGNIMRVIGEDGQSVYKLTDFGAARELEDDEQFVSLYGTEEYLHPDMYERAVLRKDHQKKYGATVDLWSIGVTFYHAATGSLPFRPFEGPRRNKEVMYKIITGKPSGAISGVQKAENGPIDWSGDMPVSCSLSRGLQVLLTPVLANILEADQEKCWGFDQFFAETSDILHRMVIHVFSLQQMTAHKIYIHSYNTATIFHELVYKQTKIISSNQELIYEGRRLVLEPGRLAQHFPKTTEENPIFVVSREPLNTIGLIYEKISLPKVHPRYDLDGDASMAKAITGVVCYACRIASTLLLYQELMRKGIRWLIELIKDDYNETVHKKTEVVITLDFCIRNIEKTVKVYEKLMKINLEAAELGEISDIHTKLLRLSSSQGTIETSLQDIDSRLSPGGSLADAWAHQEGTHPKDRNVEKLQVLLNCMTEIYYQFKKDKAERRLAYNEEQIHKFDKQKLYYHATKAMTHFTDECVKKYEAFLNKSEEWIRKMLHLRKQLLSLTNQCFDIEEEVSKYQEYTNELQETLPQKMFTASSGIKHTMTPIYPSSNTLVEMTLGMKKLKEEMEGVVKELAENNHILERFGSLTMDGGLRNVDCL
Procedure: Biochemical single point inhibition and IC50 concentrations for TBK1, IKKε (IKBKE), and off-target kinases were determined at ThermoFisher Scientific using SelectScreen Kinase Profiling Services (Madison, Wis., USA) (Tables S4A and S4B-1-7). To determine cellular potency, the human colorectal cancer carcinoma cell line HCT116 (ATCC, Manassas, Va.) was maintained in T175 flasks in complete RPMI medium; RPMI 1640 supplemented with 10% FBS, 1× Penicillin-Streptomycin solution and 1×MEM (non-essential amino acids). HCT116 cells were grown to 90-95% confluency in T175 flasks containing complete RPMI medium and transfected in bulk using Lipofectamine 2000 (Invitrogen, Carlsbad, Calif.) with 70 μg of ISG54-luciferase reporter plasmid (Elim Biopharmaceuticals Inc., Hayward, Calif.). The reporter plasmid contains a luciferase gene expression cassette under the transcriptional regulation of the promoter of the human interferon stimulated gene 54 (ISG54). Transfection of the cells was allowed to take place for 6 hours, after which the cells were harvested by treatment with 0.25% trypsin EDTA (Corning Inc., Corning, N.Y.). Trypsinized cells were added to 384-well poly-d-lysine treated black clear bottom tissue culture assay plates (Greiner Bio-One GmbH, Kremsmünster, Austria) at a density of 20,000 cells/well in 80 μL of complete RPMI medium and incubated overnight. After 16-18 hours post-transfection, the assay plates were washed with PBS (Corning Inc., Corning, N.Y.), followed by addition of 80 μL/well of serum-free RPMI 1640 medium containing 1× Penicillin-Streptomycin solution, 1×MEM and 350 nL of DMSO or titrations of Compound 1. Compound 1 titrations were generated by 1.5-fold dilution steps in two overlapping serial dilution series to generate a 40-point compound dose range. After incubation at 37° C. for 1 hour, the cells were stimulated with Poly(I:C) (InvivoGen, San Diego, Calif.) at a final concentration of 15 μg/mL in Optimem media (Life Technologies, Rockville, Md.). The assay plates were incubated for 5 hours at 37° C., followed by addition of One-Glo luciferase firefly reagent (Promega, Madison, Wis.) at 1:1 volume/well and luminescence was measured in an EnVision Multilabel Plate Reader (PerkinElmer, Santa Clara, Calif.). The EC50 values were calculated from the fit of the dose-response curves to a four-parameter equation. All EC50 values represent geometric mean values of a minimum of four determinations.

MB49 allograft = experiment: MB49 allograft, Compound 1 and anti-PD-L1 combination in vivo; parameters: species or system mouse; conditions: Cmpd1 + αPD-L1

N#Cc1cc(-c2ncnc(Nc3ccc(N4CCN(C5COC5)CC4)cc3)n2)ccc1OC1CCOCC1 [Compound 1, 5-(4-((4-(4-(oxetan-3-yl)piperazin-1-yl)phenyl)amino)-1,3,5-triazin-2-yl)-2-((tetrahydro-2H-pyran-4-yl)oxy)benzonitrile]
inhibition (TBK1; read-out: % Inhibition 1): 91%
inhibition (TBK1; read-out: % Inhibition 2): 99%
inhibition (TBK1; read-out: % Inhibition Avg): 95%
Hillslope (TBK1): 1.12
IC50 (TBK1): 1.04 nM
fold selectivity (IKBKE) (TBK1; IC50 relative to IKBKE IC50): 0.2 fold
fold selectivity (TBK1) (TBK1; IC50 relative to TBK1 IC50): 1.0 fold
response to combination treatment in vivo, MB49 bladder carcinoma model (MB49 allograft): enhanced response
